Assay results as given in patent US10323022B2, “Pyrrolidinyl urea, pyrrolidinyl thiourea and pyrrolidinyl guanidine compounds as TrkA kinase inhibitors” (Array BioPharma Inc., priority 2011, dated 2019).

Target: TrkA (Homo sapiens (Human), UniProt P04629)
Assay: TrkA Omnia Assay
Type: biochemical
Settings: averaged IC50; 20 nM enzyme, 500 μM ATP, 10 μM peptide substrate
Procedure, shortened: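 Continuous fluorescent kinase read-out (ex 360 nm, em 485 nm) over 70 min, with initial rates fitted to 4- or 5-parameter logistic curves for IC50. Final conditions: 500 μM ATP, 10 μM Omnia Tyr Peptide #4, 20 nM TrkA, MOPS pH 7.5 buffer with MgCl2 and Triton X-100; enzyme and compound preincubated 10 min at ambient temperature.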

Chain of TrkA (P04629 33-796): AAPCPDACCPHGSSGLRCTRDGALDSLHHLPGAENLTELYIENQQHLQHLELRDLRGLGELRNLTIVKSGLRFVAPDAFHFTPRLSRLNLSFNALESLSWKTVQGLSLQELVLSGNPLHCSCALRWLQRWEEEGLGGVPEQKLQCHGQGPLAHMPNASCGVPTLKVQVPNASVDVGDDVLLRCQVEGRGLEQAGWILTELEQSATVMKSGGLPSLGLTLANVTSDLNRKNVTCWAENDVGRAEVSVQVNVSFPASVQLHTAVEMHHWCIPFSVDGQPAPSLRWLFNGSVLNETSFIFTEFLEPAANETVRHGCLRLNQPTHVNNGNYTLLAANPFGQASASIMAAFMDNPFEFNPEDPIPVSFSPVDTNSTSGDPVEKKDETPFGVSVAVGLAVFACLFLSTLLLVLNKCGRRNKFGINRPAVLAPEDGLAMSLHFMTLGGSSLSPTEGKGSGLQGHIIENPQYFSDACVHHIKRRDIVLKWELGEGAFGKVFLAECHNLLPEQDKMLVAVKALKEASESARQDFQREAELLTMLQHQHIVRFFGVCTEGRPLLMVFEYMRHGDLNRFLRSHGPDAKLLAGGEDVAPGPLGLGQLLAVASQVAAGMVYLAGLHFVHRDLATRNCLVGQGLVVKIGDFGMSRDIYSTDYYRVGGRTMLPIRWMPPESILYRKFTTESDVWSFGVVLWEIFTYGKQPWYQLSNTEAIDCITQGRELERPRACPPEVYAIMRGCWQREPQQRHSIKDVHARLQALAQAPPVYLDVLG

SMILES: COCCN1C[C@@H](NC(=O)Nc2c(-c3ccccc3)nn(C(C)C)c2C)[C@H](c2cc(F)cc(F)c2)C1 [Example 642, 1-((3S,4R)-4-(3,5-difluorophenyl)-1-(2-methoxyethyl)pyrrolidin-3-yl)-3-(1-isopropyl-5-methyl-3-phenyl-1H-pyrazol-4-yl)urea]
- IC50: 100 to 1000 nM

SMILES: COCCN1C[C@@H](NC(=O)Nc2c(-c3ccccc3)nn(CC(F)(F)F)c2C)[C@H](c2ccc(F)c(F)c2)C1 [Example 643, 1-((3S,4R)-4-(3,4-difluorophenyl)-1-(2-methoxyethyl)pyrrolidin-3-yl)-3-(5-methyl-3-phenyl-1-(2,2,2-trifluoroethyl)-1H-pyrazol-4-yl)urea]
- IC50: < 100 nM

SMILES: CCn1nc(-c2ccccc2)c(NC(=O)N[C@@H]2CN(CCOC)C[C@H]2c2ccc(F)c(F)c2)c1C [Example 644, 1-((3S,4R)-4-(3,4-difluorophenyl)-1-(2-methoxyethyl)pyrrolidin-3-yl)-3-(1-ethyl-5-methyl-3-phenyl-1H-pyrazol-4-yl)urea]
- IC50: < 100 nM

SMILES: CCn1nc(C)c(NC(=O)N[C@@H]2CN(CCOC)C[C@H]2c2ccc(F)c(F)c2)c1-c1ccccc1 [Example 645, 1-((3S,4R)-4-(3,4-difluorophenyl)-1-(2-methoxyethyl)pyrrolidin-3-yl)-3-(1-ethyl-3-methyl-5-phenyl-1H-pyrazol-4-yl)urea]
- IC50: < 100 nM

SMILES: COCCN1C[C@@H](NC(=O)Nc2c(C(F)(F)F)nn(C)c2-c2ccccc2)[C@H](c2ccc(F)c(F)c2)C1 [Example 646, 1-((3S,4R)-4-(3,4-difluorophenyl)-1-(2-methoxyethyl)pyrrolidin-3-yl)-3-(1-methyl-5-phenyl-3-(trifluoromethyl)-1H-pyrazol-4-yl)urea]
- IC50: 100 to 1000 nM

SMILES: COCCN1C[C@@H](NC(=O)Nc2c(-c3ccccc3)nn(C)c2C(F)(F)F)[C@H](c2ccc(F)c(F)c2)C1 [Example 647, 1-((3S,4R)-4-(3,4-difluorophenyl)-1-(2-methoxyethyl)pyrrolidin-3-yl)-3-(1-methyl-3-phenyl-5-(trifluoromethyl)-1H-pyrazol-4-yl)urea]
- IC50: < 100 nM

SMILES: COCCN1C[C@@H](NC(=O)Nc2cn(-c3ccccc3)nc2C)[C@H](c2ccc(F)c(F)c2)C1 [Example 648, 1-((3S,4R)-4-(3,4-difluorophenyl)-1-(2-methoxyethyl)pyrrolidin-3-yl)-3-(3-methyl-1-phenyl-1H-pyrazol-4-yl)urea]
- IC50: < 100 nM

SMILES: COCCN1C[C@@H](NC(=O)Nc2cn(-c3ccccc3)nc2C(F)(F)F)[C@H](c2ccc(F)c(F)c2)C1 [Example 649, 1-((3S,4R)-4-(3,4-difluorophenyvl)-1-(2-methoxyethyl)pyrrolidin-3-yl)-3-(1-phenyl-3-(trifluoromethyl)-1H-pyrazol-4-yl)urea]
- IC50: 100 to 1000 nM
